How the values were obtained:
[1] = biological target: EmoA (EDTA-degrading bacterium BNC1, UniProt Q9F9T3); assay: ITC; format: binding
[2] = biological target: EDTA monooxygenase (EmoA) from Chelativorans sp. BNC1 (Chelativorans sp. BNC1); assay: SEC-MALS

Molecule | Kd [1] [nM] | stoichiometry N [2]
Cc1cc2nc3c(=O)[nH]c(=O)nc-3n(C[C@H](O)[C@H](O)[C@H](O)COP(=O)(O)O)c2cc1C [FMN] | 330 | –
EDTA monooxygenase (EmoA) from Chelativorans sp. BNC1 (enzyme) | – | 2

Reference: PMC4899218 (Molecular microbiology, 2016)
